Measured values taken from patent publication US20040266863A1, “Use of (11beta,17beta)-11-(1,3-benzodioxol-5-yl)-17-hydroxy-17-(1-propynyl)-estra-4,9-dien-3-one in the treatment of major depressive disorder” (priority 2001, published 2004).

Tests used:
glucocorticoid receptor = molecular target: T1, glucocorticoid receptor (Homo sapiens, UniProt P04150); assay: in vitro binding to the glucocorticoid receptor
T1 sequence (P04150 1-777): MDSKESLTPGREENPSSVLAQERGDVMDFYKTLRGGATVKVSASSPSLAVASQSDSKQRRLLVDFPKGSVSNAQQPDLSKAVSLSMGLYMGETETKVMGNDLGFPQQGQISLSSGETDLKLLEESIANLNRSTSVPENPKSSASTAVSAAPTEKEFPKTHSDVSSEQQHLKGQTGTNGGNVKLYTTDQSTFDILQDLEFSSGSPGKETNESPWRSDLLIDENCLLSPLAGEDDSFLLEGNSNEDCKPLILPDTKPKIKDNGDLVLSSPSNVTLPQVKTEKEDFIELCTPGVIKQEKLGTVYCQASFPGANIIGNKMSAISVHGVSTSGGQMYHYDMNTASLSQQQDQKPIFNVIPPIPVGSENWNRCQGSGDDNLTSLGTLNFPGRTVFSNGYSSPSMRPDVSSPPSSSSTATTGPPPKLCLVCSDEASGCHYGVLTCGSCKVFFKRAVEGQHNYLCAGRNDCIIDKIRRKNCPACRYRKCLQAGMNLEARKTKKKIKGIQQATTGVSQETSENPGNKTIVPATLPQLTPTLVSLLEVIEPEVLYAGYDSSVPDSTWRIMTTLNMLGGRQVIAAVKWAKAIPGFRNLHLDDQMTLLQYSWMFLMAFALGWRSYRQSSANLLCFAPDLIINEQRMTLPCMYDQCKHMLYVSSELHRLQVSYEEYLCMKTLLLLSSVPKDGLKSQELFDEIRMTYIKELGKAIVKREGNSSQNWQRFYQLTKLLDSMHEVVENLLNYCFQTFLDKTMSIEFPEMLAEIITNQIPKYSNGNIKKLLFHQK

[1] = test system: immature dexamethasone treated male rats; assay: in vivo antiglucocorticoid activity in immature dexamethasone treated male rats (procedure of Kloosterboer et al); design: species or system rat; settings: for threshold dose for demonstrating in vivo antiglucocorticoid effects: rat
(healthy) humans = assay: clinical study of antiglucocorticoid activity in healthy humans (cortisol increase, dexamethason antagonism); format: in vivo, human
[2] = test system: depressed patients (Major Depressive Disorder); assay: double blind, 4 week, paroxetine controlled study in patients with Major Depressive Disorder (HAMD-21); format: in vivo, human; settings: for difference on the Hamilton scale versus paroxetine (onset of antidepressant effect): 150 mg treatment group
Method: A double blind, 4 week, paroxetine controlled study of Org 34517 in depressed patients was carried out. Paroxetine is a selective serotonin re-uptake inhibitor which is recognized as an effective antidepressant for major depression.
Patients were randomly allocated to one of three treatment groups. Group I patients (Org 150 group: 50 patients) received 2 capsules with 75 mg of Org 34517 and one placebo (total daily dose 150 mg) for the first 2 weeks and 2 capsules with 75 mg Org 34517 and 1 capsule with 150 mg (total daily dose 300 mg) the next 2 weeks; Group II patients (Org 450 group: 46 patients) received 3 capsules with 150 mg Org 34517 (total daily dose 450 mg) in the first 2 weeks and 4 capsules of Org 34517 (total daily dose 600 mg) in the next 2 weeks; Group III patients (paroxetine group: 44 patients) received 2 capsules with 10 mg paroxetine and one placebo capsule (total daily dose 20 mg) for the first 2 weeks, followed by 2 capsules of 10 mg and one capsule of 20 mg paroxetine (total daily dose 40 mg) in the next 2 weeks. Medication was administered orally in the morning. Efficacy assessment was done on days 4, 7, 10, 14, 21, 28 and 35 by using the 21-item HAMD scale.
Afternoon cortisol plasma levels (ACT=afternoon cortisol test) were measured as described by Halbreich et al (J. Clin. Endocrinol. Metab. 54(6), 1262, 1982).

[3] = test system: patients with psychotic major depression; settings: 8-12 mg/kg/day over 4 days (WO 99/17779); cited from earlier work

potency in in vitro binding to the glucocorticoid receptor, relative to mifepristone (glucocorticoid receptor) [%]	Structure (SMILES)	antiglucocorticoid activity: effect (weight gain) on body weight, adrenals, thymus and spleen ([1]; orally applied, 10 mg/kg to 40 mg/kg, immature dexamethasone treated male rats)	threshold dose for demonstrating in vivo antiglucocorticoid effects [1] [mg/kg]	antiglucocorticoid potency relative to mifepristone, estimated on the amount of dexamethason antagonism ((healthy) humans) [%]	antiglucocorticoid potency relative to mifepristone, estimated on the basis of the cortisol increase ((healthy) humans)	difference on the Hamilton scale versus paroxetine (onset of antidepressant effect) ([2]; all patients, day 10, FIG. 1) [point]	onset of antidepressant effect ([2]; daily dosage not exceeding 300 mg compared with 450 mg or more)	difference on the Hamilton scale versus paroxetine (onset of antidepressant effect) ([2]; dexamethason non-suppressors, day 10, FIG. 3) [point]	difference on the Hamilton scale versus paroxetine (onset of antidepressant effect) ([2]; patients with afternoon plasma cortisol higher than 10 μg/dl at start, day 10, FIG. 2) [point]	treatment of psychosis associated with psychotic major depression [3]
52	CC#C[C@]1(O)CC[C@H]2[C@@H]3CCC4=CC(=O)CCC4=C3[C@@H](c3ccc4c(c3)OCO4)C[C@@]21C [Org 34517, (11β,17β)-11-(1,3-benzodioxol-5-yl)-17-hydroxy-17-(1-propynyl)estra-4,9-dien-3-one]	proved to increase with the dose	20	17	10-25%	~2	fast onset of antidepressant effect	~6	~4	–
–	CC#C[C@]1(O)CC[C@H]2[C@@H]3CCC4=CC(=O)CCC4=C3[C@@H](c3ccc(N(C)C)cc3)C[C@@]21C [mifepristone, 17β-hydroxy-11β-(4-dimethylaminophenyl)-17α-(1-propynyl)estra-4,9-dien-3-one, reference compound]	–	5	–	–	–	–	–	–	effective
